Reference: patent US6545155B2, “Fused heteroaromatic glucokinase activators” (Hoffmann-La Roche Inc., priority 2000, dated 2003)

Each molecule was assayed on C57BL/6J mice (assay: Glucokinase activator in vivo screen protocol (blood glucose after oral dosing)). Conditions: administered orally, 50 mg/kg, C57BL/6J mice fasted two hours, blood glucose vs vehicle over six hours post dose.
Method: (Glucokinase Activator in Vivo Screen Protocol
C57BL/6J mice are orally dosed via gavage with Glucokinase (GK) activator at 50 mg/kg body weight following a two hour fasting period. Blood glucose determinations are made five times during the six hour post-dose study period.
Mice (n=6) are weighed and fasted for a two hour period prior to oral treatment. GK activators are formulated at 6.76 mg/ml in Gelucire vehicle (Ethanol:Gelucire44/14:PEG400q.s. 4:66:30 v/w/v. Mice are dosed orally with 7.5 μL formulation per gram of body weight to equal a 50 mg/kg dose. Immediately prior to dosing, a pre dose (time zero) blood glucose reading is acquired by snipping off a small portion of the animals tail (˜1 mm) and collecting 15 μL blood into a heparinized capillary tube for analysis. Following GK activator administration, additional blood glucose readings are taken at 1, 2, 4, and 6 hours post dose from the same tail wound. Results are interpreted by comparing the mean blood glucose values of six vehicle treated mice with six GK activator treated mice over the six hour study duration.

Row | SMILES | glucokinase activator in vivo activity
1 | CS(=O)(=O)c1ccc(C(CC2CCCC2)C(=O)Nc2ccc3ccccc3n2)cc1Cl (stereo not drawn) [Example 22, 2-(3-Chloro-4-methanesulfonyl-phenyl)-3-cyclopentyl-N-quinolin-2-yl-propionamide] | excellent glucokinase activator in vivo activity
2 | CS(=O)(=O)c1ccc(C(CC2CCCC2)C(=O)Nc2nc3ccccc3[nH]2)cc1Cl (stereo not drawn) [Example 20, N-(1H-Benzoimidazol-2-yl)-2-(3-chloro-4-methanesulfonyl-phenyl)-3-cyclopentyl-propionamide] | excellent glucokinase activator in vivo activity
3 | CS(=O)(=O)c1ccc([C@@H](CC2CCCC2)C(=O)Nc2nc3ccccc3s2)cc1Cl [Example 19, N-Benzothiazol-2-yl-2(R)-(3-chloro-4-methanesulfonyl-phenyl)-3-cyclopentyl-propionamide] | excellent glucokinase activator in vivo activity
